Target: Voltage-dependent L-type calcium channel subunit alpha-1D (Rattus norvegicus, UniProt P27732)
Assay: Inhibition of [3H]nitrendipine binding to L-type [Ca2+] channel in rat cortex homogenate, activity expressed as pIC50

Voltage-dependent L-type calcium channel subunit alpha-1D, sequence (P27732 whole entry): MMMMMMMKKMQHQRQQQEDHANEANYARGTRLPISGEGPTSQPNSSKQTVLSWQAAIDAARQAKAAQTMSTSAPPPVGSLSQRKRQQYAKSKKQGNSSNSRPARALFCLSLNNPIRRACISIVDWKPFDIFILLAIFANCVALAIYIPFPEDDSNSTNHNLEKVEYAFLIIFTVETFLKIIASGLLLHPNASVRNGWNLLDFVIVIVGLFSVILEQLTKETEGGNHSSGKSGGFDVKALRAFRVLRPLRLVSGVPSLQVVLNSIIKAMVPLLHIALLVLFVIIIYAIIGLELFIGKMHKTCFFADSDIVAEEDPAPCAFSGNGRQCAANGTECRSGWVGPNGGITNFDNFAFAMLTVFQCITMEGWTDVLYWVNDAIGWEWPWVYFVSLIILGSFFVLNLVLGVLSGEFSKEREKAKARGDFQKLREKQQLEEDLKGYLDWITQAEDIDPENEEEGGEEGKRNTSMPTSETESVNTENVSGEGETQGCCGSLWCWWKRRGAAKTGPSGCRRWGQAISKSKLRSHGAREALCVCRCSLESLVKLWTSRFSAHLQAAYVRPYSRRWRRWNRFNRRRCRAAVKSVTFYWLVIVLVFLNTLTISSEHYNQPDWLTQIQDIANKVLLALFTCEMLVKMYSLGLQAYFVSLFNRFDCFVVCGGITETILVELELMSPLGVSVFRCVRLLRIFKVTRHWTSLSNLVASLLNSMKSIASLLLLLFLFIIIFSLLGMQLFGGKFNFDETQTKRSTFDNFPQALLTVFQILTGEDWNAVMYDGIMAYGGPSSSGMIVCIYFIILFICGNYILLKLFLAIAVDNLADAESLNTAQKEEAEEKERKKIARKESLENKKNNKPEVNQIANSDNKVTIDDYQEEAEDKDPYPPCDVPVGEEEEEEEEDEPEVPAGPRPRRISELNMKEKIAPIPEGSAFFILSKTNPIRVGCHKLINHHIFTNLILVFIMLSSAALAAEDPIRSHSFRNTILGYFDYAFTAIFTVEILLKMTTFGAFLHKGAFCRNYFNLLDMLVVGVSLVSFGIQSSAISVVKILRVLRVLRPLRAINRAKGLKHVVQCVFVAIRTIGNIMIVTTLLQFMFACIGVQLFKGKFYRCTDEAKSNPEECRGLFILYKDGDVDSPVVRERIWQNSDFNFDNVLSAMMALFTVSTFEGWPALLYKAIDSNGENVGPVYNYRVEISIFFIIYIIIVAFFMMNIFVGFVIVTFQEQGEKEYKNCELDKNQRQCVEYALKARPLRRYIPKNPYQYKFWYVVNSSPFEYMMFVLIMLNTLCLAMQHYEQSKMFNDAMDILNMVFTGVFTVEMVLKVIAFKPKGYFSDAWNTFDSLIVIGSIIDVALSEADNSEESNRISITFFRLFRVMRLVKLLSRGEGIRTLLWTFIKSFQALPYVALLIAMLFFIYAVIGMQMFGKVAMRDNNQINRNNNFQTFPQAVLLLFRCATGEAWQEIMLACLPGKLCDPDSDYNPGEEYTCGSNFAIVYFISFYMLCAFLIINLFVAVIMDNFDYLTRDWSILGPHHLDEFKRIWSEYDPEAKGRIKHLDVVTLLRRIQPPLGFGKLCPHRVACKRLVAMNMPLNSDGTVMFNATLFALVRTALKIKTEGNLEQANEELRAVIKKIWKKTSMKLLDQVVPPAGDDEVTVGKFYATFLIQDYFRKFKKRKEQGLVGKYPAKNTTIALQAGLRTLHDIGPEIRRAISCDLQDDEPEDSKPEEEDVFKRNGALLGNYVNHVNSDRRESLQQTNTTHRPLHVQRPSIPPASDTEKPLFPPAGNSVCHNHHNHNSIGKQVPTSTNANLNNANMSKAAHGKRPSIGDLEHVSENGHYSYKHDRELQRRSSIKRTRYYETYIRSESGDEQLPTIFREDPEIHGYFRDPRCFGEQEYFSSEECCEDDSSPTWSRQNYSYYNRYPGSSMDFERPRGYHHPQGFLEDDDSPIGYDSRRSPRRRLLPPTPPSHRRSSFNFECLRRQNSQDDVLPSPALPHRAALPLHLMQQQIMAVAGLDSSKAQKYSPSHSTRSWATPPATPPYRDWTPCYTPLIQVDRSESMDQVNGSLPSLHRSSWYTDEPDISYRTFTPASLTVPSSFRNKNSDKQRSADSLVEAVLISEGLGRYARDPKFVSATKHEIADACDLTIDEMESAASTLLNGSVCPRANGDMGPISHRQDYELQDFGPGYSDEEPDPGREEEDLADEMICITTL

Structure (SMILES)	IC50
CN(C)Cc1ccc2n1-c1cccc(Cl)c1SC2(c1ccccc1)c1ccccc1	0.0813 µM
FC(F)(F)c1ccc2c(c1)-n1cccc1C(c1ccccc1)(c1ccccc1)S2	2.04 µM
CC(=O)O[C@H]1c2ccc(CN(C)C)n2-c2cc(Cl)ccc2S[C@H]1c1ccccc1	1.23 µM
O=C1CC[C@H]2[C@H](c3ccccc3)Sc3ccccc3N12	0.000776 µM
COc1ccc(C2Sc3ccccc3-n3c(CN(C)CCc4ccc(OC)c(OC)c4)ccc32)cc1 (centres undefined)	0.0525 µM
COc1ccc([C@@H]2Sc3ccccc3N3C(=O)CC[C@@H]23)cc1	0.00437 µM
CN(C)Cc1ccc2n1-c1cc(C(F)(F)F)ccc1SC2(c1ccccc1)c1ccccc1	0.107 µM
c1ccc(C2(c3ccccc3)Sc3ccccc3-n3cccc32)cc1	0.468 µM
CN(C)Cc1ccc2n1-c1ccccc1SC2c1ccccc1 (centres undefined)	0.316 µM
COc1ccc([C@@H]2Sc3ccc(C(F)(F)F)cc3-n3c(CN(C)C)ccc3[C@@H]2OC(C)=O)cc1	5.01 µM
COc1ccc(C2(OC(C)=O)Sc3ccccc3-n3cccc32)cc1 (centres undefined)	0.0302 µM
COc1ccc(CCN(C)Cc2ccc3n2-c2ccccc2SC3c2ccccc2)cc1OC (centres undefined)	0.2 µM
COc1ccc([C@@H]2Sc3ccccc3-n3c(CN(C)C)ccc3[C@@H]2OC(C)=O)cc1	0.135 µM

More lines, in order of falling IC50, values ahead:

IC50	Structure (SMILES)
5.01 µM	COc1ccc(C2Sc3ccccc3-n3c(CN4CCOCC4)ccc32)cc1 (centres undefined)
5.01 µM	COC1(OC)C=CC(C2(C3=CCC(OC)(OC)C=C3)Sc3ccc(C(F)(F)F)cc3-n3cccc32)=CC1
5.01 µM	COC1(OC)C=CC(C2(C3=CCC(OC)(OC)C=C3)Sc3ccccc3-n3cccc32)=CC1
5.01 µM	CC(=O)O[C@H]1c2ccc(CN(C)C)n2-c2ccccc2S[C@H]1c1ccccc1
4.68 µM	CC(=O)OC1(c2ccccc2)Sc2ccccc2-n2cccc21 (centres undefined)
4.37 µM	Clc1ccc2c(c1)-n1cccc1C(c1ccccc1)(c1ccccc1)S2
2.19 µM	COc1ccc(C2(c3ccc(OC)cc3)Sc3ccccc3-n3c(CN(C)C)ccc32)cc1
1.58 µM	COc1ccc(C2Sc3ccccc3-n3c(CN(C)CCc4ccc(OC)c(OC)c4)ccc32)c(OC)c1 (centres undefined)
0.398 µM	COc1ccc(CCNCc2ccc3n2-c2ccccc2SC3C2=CCC(OC)(OC)C=C2)cc1OC (centres undefined)
0.316 µM	Clc1cccc2c1SC(c1ccccc1)(c1ccccc1)c1cccn1-2
0.302 µM	CC(=O)O[C@H]1c2ccc(CN(C)C)n2-c2cc(C(F)(F)F)ccc2S[C@H]1c1ccccc1
0.151 µM	COc1ccc(C2Sc3ccccc3-n3c(CN(C)C)ccc32)c(OC)c1 (centres undefined)
0.0646 µM	CC(=O)OC1(c2ccccc2)Sc2ccc(C(F)(F)F)cc2-n2cccc21 (centres undefined)
0.0151 µM	CCC(C)NCc1ccc2n1-c1ccccc1SC2c1ccc(OC)cc1OC (centres undefined)
0.012 µM	CCC(C)NCc1ccc2n1-c1ccccc1SC2C1=CCC(OC)(OC)C=C1 (centres undefined)
0.00331 µM	COc1ccc([C@@H]2Sc3ccc(Cl)cc3-n3c(CN(C)C)ccc3[C@@H]2OC(C)=O)cc1

From ChEMBL document CHEMBL1130013, “Diltiazem-like calcium entry blockers: a hypothesis of the receptor-binding site based on a comparative molecular field analysis model” (J Med Chem, 1997)
